# Reference: patent US7732429B2 (Trustees of Tufts College, priority 1994, dated 2010)
# Tests used:
# [1] = target: T1, efflux protein (Escherichia coli, UniProt P02980); assay: everted membrane vesicle assay, blocking activity of 13-S-derivatives; type: biochemical; settings: blocking activity against the efflux protein, everted membrane vesicle assay
# T1 sequence (P02980 1-401): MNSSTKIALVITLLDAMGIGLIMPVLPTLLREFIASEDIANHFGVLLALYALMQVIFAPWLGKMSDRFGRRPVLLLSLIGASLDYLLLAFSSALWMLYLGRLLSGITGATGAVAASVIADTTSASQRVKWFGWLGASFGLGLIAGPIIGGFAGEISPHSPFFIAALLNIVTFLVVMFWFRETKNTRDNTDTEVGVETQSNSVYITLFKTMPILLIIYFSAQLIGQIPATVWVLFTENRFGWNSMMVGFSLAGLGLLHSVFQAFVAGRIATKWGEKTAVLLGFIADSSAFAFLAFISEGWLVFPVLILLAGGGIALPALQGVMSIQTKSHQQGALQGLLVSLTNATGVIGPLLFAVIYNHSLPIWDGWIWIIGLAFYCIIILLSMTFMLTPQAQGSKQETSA
# [2] = test system: E. faecalis Tc^r (L) ATCC9790r/Tell.); assay: susceptibility testing MIC/MLC, drug alone; type: cell-based; settings: Tc^r (L) ATCC9790r/Tell.), drug alone
# [3] = test system: E. faecalis Tc^s (ATCC9790r); assay: susceptibility testing MIC/MLC, drug alone; type: cell-based
# [4] = test system: E. coli Tc^s (MI 308-226); assay: susceptibility testing MIC/MLC, drug alone; type: cell-based; settings: Tc^s (MI 308-226), drug alone
# [5] = test system: E. faecalis Tc^r(M) (ATCC09790r/TelM); type: cell-based; settings: drug alone
# [6] = test system: E. coli Class B Tc^r (DI-209); type: cell-based; settings: drug alone
# [7] = test system: E. coli Class A Tc^r (DI-299); type: cell-based; settings: drug alone
# [8] = test system: E. coli DI-299 (Tet A); assay: MIC/MLC chart, analog with and without doxycycline; type: cell-based; set-up: key to growth/killing, Analog + Doxy / growth/killing, Doxy Control / growth/killing, Analog Control / growth in MIC/MLC chart: +=growth; 0=no growth (MIC); ↓=killing; ? =99.9% killing (MLC); □=no growth, but no microbiologic testing;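 further: bacterial growth inhibition and killing in broth, each agent tested alone or combined with doxycycline across two-fold serial dilutions, overnight incubation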
# [9] = test system: E. faecalis 211 (Tet M); assay: MIC/MLC chart, analog with and without doxycycline; type: cell-based
# [10] = test system: S. aureus 4250 (Tet K); assay: MIC/MLC chart, analog with and without doxycycline; type: cell-based
# [11] = test system: E. faecalis 158 (Tet L); assay: MIC/MLC chart, analog with and without doxycycline; type: cell-based
# [12] = Analog Control: analog alone 1.56 μg/ml
# [13] = Analog Control: analog alone .195 μg/ml
# [14] = Analog Control: analog alone .39 μg/ml
# [15] = Analog Control: analog alone .78 μg/ml
# [16] = analog 1.56 μg/ml + doxycycline 1.55 μg/ml
# [17] = analog 1.56 μg/ml + doxycycline 3.1 μg/ml
# [18] = analog 1.56 μg/ml + doxycycline 6.2 μg/ml
# [19] = analog .195 μg/ml + doxycycline 1.56 μg/ml
# [20] = analog .195 μg/ml + doxycycline 3.12 μg/ml
# [21] = analog .195 μg/ml + doxycycline 6.25 μg/ml
# [22] = analog .195 μg/ml + doxycycline 12.5 μg/ml
# [23] = analog .39 μg/ml + doxycycline 1.56 μg/ml
# [24] = analog .39 μg/ml + doxycycline 3.12 μg/ml
# [25] = analog .39 μg/ml + doxycycline 6.25 μg/ml
# [26] = analog .39 μg/ml + doxycycline 12.5 μg/ml
# [27] = analog .78 μg/ml + doxycycline 1.56 μg/ml
# [28] = analog .78 μg/ml + doxycycline 3.12 μg/ml
# [29] = analog .78 μg/ml + doxycycline 6.23 μg/ml
compound,measurement,setting,value
Cc1ccc(CSCC2c3cccc(O)c3C(=O)C3=C(O)C4(O)C(=O)C(C(N)=O)=C(O)C(N(C)C)C4C(O)C32)cc1 (centres unmarked) [p-Me-Benzyl],Ki,[1],1.2 µg/mL
CN(C)C1C(O)=C(C(N)=O)C(=O)C2(O)C(O)=C3C(=O)c4c(O)cccc4C(CSC(C)(C)C)C3C(O)C12 (centres unmarked) [t-Butyl],Ki,[1],0.3 µg/mL
"CN(C)c1ccc(O)c2c1C[C@H]1C[C@H]3[C@H](N(C)C)C(=O)C(C(N)=O)=C(O)[C@@]3(O)C(=O)C1=C2O [Minocycline, reference compound]",MIC,[2],<0.25 µg
same,MIC,[3],<0.25 µg
same,MIC,[4],<4 µg
same,MLC,[4]; kills 99.9%,<4 µg
same,MIC,[5],10 µg
same,MIC,[6],6 ± 2 µg
same,MLC,[6]; kills 99.9%,30 ± 10 µg
same,MIC,[7],<4 µg
same,MLC,[7]; kills 99.9%,20 µg
CN(C)C1C(O)=C(C(N)=O)C(=O)C2(O)C(O)=C3C(=O)c4c(O)cccc4C(CSCc4ccc(Cl)cc4)C3C(O)C12 (centres unmarked) [p-Cl-Benzyl],Ki,[1],1.5 µg/mL
CCCCSCC1c2cccc(O)c2C(=O)C2=C(O)C3(O)C(=O)C(C(N)=O)=C(O)C(N(C)C)C3C(O)C21 (centres unmarked) [Butyl],Ki,[1],0.5 µg/mL
CCCSCC1c2cccc(O)c2C(=O)C2=C(O)C3(O)C(=O)C(C(N)=O)=C(O)C(N(C)C)C3C(OC(=O)CC)C21 (centres unmarked) [Cmpd 13-propyl-thio-5-proprionate],growth in MIC/MLC chart,[8]; [12],+
same,growth in MIC/MLC chart,[8]; Analog Control: analog alone 3.12 μg/ml,+
same,growth in MIC/MLC chart,[8]; Analog Control: analog alone 6.25 μg/ml,+
same,growth in MIC/MLC chart,[8]; Analog Control: analog alone 12.5 μg/ml,+
same,growth in MIC/MLC chart,[8]; Analog Control: analog alone 25.0 μg/ml,+
same,growth in MIC/MLC chart,[8]; Analog Control: analog alone 50.00 μg/ml,+
same,growth in MIC/MLC chart,[8]; [13],+
same,growth in MIC/MLC chart,[8]; [14],+
same,growth in MIC/MLC chart,[8]; [15],+
same,growth in MIC/MLC chart,[8]; [16],+
same,growth in MIC/MLC chart,[8]; [17],+
same,growth in MIC/MLC chart,[8]; [18],+
same,growth in MIC/MLC chart,[8]; analog 3.12 μg/ml + doxycycline 1.53 μg/ml,+
same,growth in MIC/MLC chart,[8]; analog 3.12 μg/ml + doxycycline 3.05 μg/ml,+
same,growth in MIC/MLC chart,[8]; analog 3.12 μg/ml + doxycycline 6.1 μg/ml,+
same,growth in MIC/MLC chart,[8]; analog 6.25 μg/ml + doxycycline 3.0 μg/ml,+
same,growth in MIC/MLC chart,[8]; analog 6.25 μg/ml + doxycycline 5.9 μg/ml,+
same,growth in MIC/MLC chart,[8]; analog 6.25 μg/ml + doxycycline […],+
same,growth in MIC/MLC chart,[8]; analog 12.5 μg/ml + doxycycline 2.8 μg/ml,+
same,growth in MIC/MLC chart,[8]; analog 12.5 μg/ml + doxycycline 5.5 μg/ml,+
same,growth in MIC/MLC chart,[8]; analog 12.5 μg/ml + doxycycline […],+
same,growth in MIC/MLC chart,[8]; analog 25 μg/ml + doxycycline 2.4 μg/ml,+
same,growth in MIC/MLC chart,[8]; analog 25 μg/ml + doxycycline 4.7 μg/ml,+
same,growth in MIC/MLC chart,[8]; analog 25 μg/ml + doxycycline […],+
same,growth in MIC/MLC chart,[8]; analog 50 μg/ml + doxycycline 1.56 μg/ml,+
same,growth in MIC/MLC chart,[8]; analog 50 μg/ml + doxycycline 3.12 μg/ml,+
same,growth in MIC/MLC chart,[8]; analog 50 μg/ml + doxycycline .78 μg/ml,+
same,growth in MIC/MLC chart,[8]; [19],+
same,growth in MIC/MLC chart,[8]; [20],+
same,growth in MIC/MLC chart,[8]; [21],+
same,growth in MIC/MLC chart,[8]; [22],+
same,growth in MIC/MLC chart,[8]; [23],+
same,growth in MIC/MLC chart,[8]; [24],+
same,growth in MIC/MLC chart,[8]; [25],+
same,growth in MIC/MLC chart,[8]; [26],+
same,growth in MIC/MLC chart,[8]; [27],+
same,growth in MIC/MLC chart,[8]; [28],+
same,growth in MIC/MLC chart,[8]; [29],+
same,growth in MIC/MLC chart,[8]; analog .78 μg/ml + doxycycline 12.4 μg/ml,+
same,growth in MIC/MLC chart,[9]; [12],+
same,growth in MIC/MLC chart,[9]; [13],+
same,growth in MIC/MLC chart,[9]; [14],+
same,growth in MIC/MLC chart,[9]; [15],+
same,growth in MIC/MLC chart,[9]; [16],+
same,growth in MIC/MLC chart,[9]; [17],+
same,growth in MIC/MLC chart,[9]; [18],+
same,growth in MIC/MLC chart,[9]; [19],+
same,growth in MIC/MLC chart,[9]; [20],+
same,growth in MIC/MLC chart,[9]; [21],+
same,growth in MIC/MLC chart,[9]; [22],+
same,growth in MIC/MLC chart,[9]; [23],+
same,growth in MIC/MLC chart,[9]; [24],+
same,growth in MIC/MLC chart,[9]; [25],+
same,growth in MIC/MLC chart,[9]; [26],+
same,growth in MIC/MLC chart,[9]; [27],+
same,growth in MIC/MLC chart,[9]; [28],+
same,growth in MIC/MLC chart,[9]; [29],+
same,growth in MIC/MLC chart,[10]; [13],+
same,growth in MIC/MLC chart,[10]; [19],+
same,growth in MIC/MLC chart,[11]; [13],+
same,growth in MIC/MLC chart,[11]; [14],+
same,growth in MIC/MLC chart,[11]; [15],+
same,growth in MIC/MLC chart,[11]; [19],+
same,growth in MIC/MLC chart,[11]; [20],+
